In patent US10259808B2 (Genentech, Inc., priority 2015, dated 2019):

Biological target: T1, RORc ligand binding domain (Homo sapiens, UniProt P51449)
T1 sequence (P51449 269-508 limits assumed): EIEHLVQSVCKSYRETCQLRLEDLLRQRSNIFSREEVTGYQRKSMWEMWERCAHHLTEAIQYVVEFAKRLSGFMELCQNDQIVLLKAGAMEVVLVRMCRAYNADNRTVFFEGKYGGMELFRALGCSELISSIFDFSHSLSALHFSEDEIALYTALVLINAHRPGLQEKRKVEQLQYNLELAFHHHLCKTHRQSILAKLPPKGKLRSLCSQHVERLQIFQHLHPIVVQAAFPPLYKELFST
Assay: In vitro RORc ligand binding assay (25-[3H]hydroxycholesterol displacement)

Structure (SMILES) | IC50 [nM]
Cc1cncc(C(=O)NC2(c3cc(F)c(CN4[C@@H](C)CC[C@H](c5ccccc5)S4(=O)=O)cc3F)COC2)n1 [Example 109, N-[3-[2,5-difluoro-4-[[(3S,6R)-3-methyl-1,1-dioxo-6-phenyl-thiazinan-2-yl]methyl]phenyl]oxetan-3-yl]-6-methyl-pyrazine-2-carboxamide] | 112
C[C@H]1CC[C@H](c2ccccc2)S(=O)(=O)N1Cc1cc(F)c(C2(NC[C@@H]3CCC(=O)N3)COC2)cc1F [Example 111, (5S)-5-[[[3-[2,5-difluoro-4-[[(3S,6R)-3-methyl-1,1-dioxo-6-phenyl-thiazinan-2 yl]methyl]phenyl]oxetan-3-yl]amino]methyl]pyrrolidin-2-one] | 89.8
C[C@H]1CC[C@H](c2ccccc2)S(=O)(=O)N1Cc1cc(F)c(C2(c3nnc[nH]3)CC(F)(F)C2)cc1F [Example 114, (3S,6R)-2-[[4-[3,3-difluoro-1-(4H-1,2,4-triazol-3-yl)cyclobutyl]-2,5-difluoro-phenyl]methyl]-3-methyl-6-phenyl-thiazinane 1,1-dioxide] | 3.6
C[C@H]1CC[C@H](c2ccccc2)S(=O)(=O)N1Cc1cc(F)c([C@]2(c3nnc[nH]3)C[C@@H](O)C2)cc1F [Example 115, 3-[2,5-difluoro-4-[[(3S,6R)-3-methyl-1,1-dioxo-6-phenyl-thiazinan-2-yl]methyl]phenyl]-3-(4H-1,2,4-triazol-3-yl)cyclobutanol] | 7.8
C[C@H]1CC[C@H](c2ccccc2)S(=O)(=O)N1Cc1cc(F)c(C2(Nc3cnccn3)CCOCC2)cc1F [Example 118, N-[4-[2,5-difluoro-4-[[(3S,6R)-3-methyl-1,1-dioxo-6-phenyl-thiazinan-2-yl]methyl]phenyl]tetrahydropyran-4-yl]pyrazin-2-amine] | 5.2
C[C@H]1CC[C@H](c2ccccc2)S(=O)(=O)N1Cc1cc(F)c(C2(c3n[nH]c(=O)o3)CC(=O)C2)cc1F [Example 119, 5-[1-[2,5-difluoro-4-[[(3S,6R)-3-methyl-1,1-dioxo-6-phenyl-thiazinan-2-yl]methyl]phenyl]-3-oxo-cyclobutyl]-3H-1,3,4-oxadiazol-2-one] | 1.8
COC1(OC)CC(c2n[nH]c(=O)o2)(c2cc(F)c(CN3[C@@H](C)CC[C@H](c4ccccc4)S3(=O)=O)cc2F)C1 [Example 120, 5-[1-[2,5-difluoro-4-[[(3S,6R)-3-methyl-1,1-dioxo-6-phenyl-thiazinan-2-yl]methyl]phenyl]-3,3-dimethoxy-cyclobutyl]-3H-1,3,4-oxadiazol-2-one] | 5.7
C[C@H]1CC[C@H](c2ccccc2)S(=O)(=O)N1Cc1cc(F)c(C2(c3n[nH]c(=O)o3)CC2)cc1F [Example 121, 5-[1-[2,5-difluoro-4-[[(3S,6R)-3-methyl-1,1-dioxo-6-phenyl-thiazinan-2-yl]methyl]phenyl]cyclopropyl]-3H-1,3,4-oxadiazol-2-one] | 19.5
C[C@H]1CC[C@H](c2ccccc2)S(=O)(=O)N1Cc1cc(F)c([C@]2(c3n[nH]c(=O)o3)C[C@@H](O)C2)cc1F [Example 124, cis-5-[1-[2,5-difluoro-4-[[(3S,6R)-3-methyl-1,1-dioxo-6-phenyl-thiazinan-2-yl]methyl]phenyl]-3-hydroxy-cyclobutyl]-3H-1,3,4-oxadiazol-2-one] | 2.1
C[C@H]1CC[C@H](c2ccccc2)S(=O)(=O)N1Cc1cc(F)c(C2(c3n[nH]c(=O)o3)CC(F)(F)C2)cc1F [Example 126, 5-[1-[2,5-difluoro-4-[[(3S,6R)-3-methyl-1,1-dioxo-6-phenyl-thiazinan-2-yl]methyl]phenyl]-3,3-difluoro-cyclobutyl]-3H-1,3,4-oxadiazol-2-one] | 2.7

Now from value to molecule:

IC50 [nM] | Structure (SMILES)
19.2 | Cc1cncc(C(=O)NC2(c3cc(F)c(CN4[C@@H](C)CC[C@H](c5ccccc5)S4(=O)=O)cc3F)CCOCC2)n1 [Example 108, N-[4-[2,5-difluoro-4-[[(3S,6R)-3-methyl-1,1-dioxo-6-phenyl-thiazinan-2-yl]methyl]phenyl]tetrahydropyran-4-yl]-6-methyl-pyrazine-2-carboxamide]
1.3 | Cc1cc(COC2(c3cc(F)c(CN4[C@@H](C)CC[C@H](c5ccccc5)S4(=O)=O)cc3F)COC2)no1 [Example 110, (3S,6R)-2-[[2,5-difluoro-4-[3-[(5-methylisoxazol-3-yl)methoxy]oxetan-3-yl]phenyl]methyl]-3-methyl-6-phenyl-thiazinane 1,1-dioxide]
4.6 | COC1(OC)CC(c2nnc[nH]2)(c2cc(F)c(CN3[C@@H](C)CC[C@H](c4ccccc4)S3(=O)=O)cc2F)C1 [Example 112, (3S,6R)-2-[[4-[3,3-dimethoxy-1-(4H-1,2,4-triazol-3-yl)cyclobutyl]-2,5-difluoro-phenyl]methyl]-3-methyl-6-phenyl-thiazinane 1,1-dioxide]
8.1 | C[C@H]1CC[C@H](c2ccccc2)S(=O)(=O)N1Cc1cc(F)c(C2(c3nnc[nH]3)CC(=O)C2)cc1F [Example 113, 3-[2,5-difluoro-4-[[(3S,6R)-3-methyl-1,1-dioxo-6-phenyl-thiazinan-2-yl]methyl]phenyl]-3-(4H-1,2,4-triazol-3-yl)cyclobutanone]
37.9 | C[C@H]1CC[C@H](c2ccccc2)S(=O)(=O)N1Cc1cc(F)c([C@]2(c3nnc[nH]3)C[C@H](O)C2)cc1F [Example 116, 3-[2,5-difluoro-4-[[(3S,6R)-3-methyl-1,1-dioxo-6-phenyl-thiazinan-2-yl]methyl]phenyl]-3-(4H-1,2,4-triazol-3-yl)cyclobutanol]
25.9 | C[C@H]1CC[C@H](c2ccccc2)S(=O)(=O)N1Cc1cc(F)c(C2(N3CC(=O)NC3=O)COC2)cc1F [Example 117, 1-[3-[2,5-difluoro-4-[[(3S,6R)-3-methyl-1,1-dioxo-6-phenyl-thiazinan-2-yl]methyl]phenyl]oxetan-3-yl]imidazolidine-2,4-dione]
2.7 | C[C@H]1CC[C@H](c2ccccc2)S(=O)(=O)N1Cc1cc(F)c(C2(OCc3nnc[nH]3)CC3(COC3)C2)cc1F [Example 122, (3S,6R)-2-[[2,5-difluoro-4-[6-(4H-1,2,4-triazol-3-ylmethoxy)-2-oxaspiro[3.3]heptan-6-yl]phenyl]methyl]-3-methyl-6-phenyl-thiazinane 1,1-dioxide]
1.8 | C[C@H]1CC[C@H](c2ccccc2)S(=O)(=O)N1Cc1cc(F)c([C@]2(c3n[nH]c(=O)o3)C[C@H](O)C2)cc1F [Example 123, trans-5-[1-[2,5-difluoro-4-[[(3S,6R)-3-methyl-1,1-dioxo-6-phenyl-thiazinan-2-yl]methyl]phenyl]-3-hydroxy-cyclobutyl]-3H-1,3,4-oxadiazol-2-one]
56.6 | C[C@H]1CC[C@H](c2ccccc2)S(=O)(=O)N1Cc1cc(F)c(C2(NCC3COC(=O)N3)COC2)cc1F (stereo partly drawn) [Example 125, 4-[[[3-[2,5-difluoro-4-[[(3S,6R)-3-methyl-1,1-dioxo-6-phenyl-thiazinan-2-yl]methyl]phenyl]oxetan-3-yl]amino]methyl]oxazolidin-2-one]
7.2 | C[C@H]1CC[C@H](c2ccccc2)S(=O)(=O)N1Cc1cc(F)c([C@]2(c3n[nH]c(=O)o3)C[C@@](C)(O)C2)cc1F [Example 127, cis-5-[1-[2,5-difluoro-4-[[(3S,6R)-3-methyl-1,1-dioxo-6-phenyl-thiazinan-2-yl]methyl]phenyl]-3-hydroxy-3-methyl-cyclobutyl]-3H-1,3,4-oxadiazol-2-one]
